Results on two compounds are retold here after US20040241839A1, “Culturing neural stem cells” (priority 2003, published 2004).

Read-outs that look alike come from different tables or passages of the source.

In assay [1] the test system is neurospheres (AC133 and Sca-1 antigens). Nature of the assay: Immunocytochemical staining of neurospheres grown in the presence of LPA. The class given is cell-based, mouse. The method, then:
Neurospheres were grown in suspension in the presence of LPA for 18 days, then transferred onto cover slips coated with laminin and poly-L-ornithine. The neurospheres attached within 6 hours and were allowed to spread and differentiate for an additional 48 hours. Cover slips were then fixed and processed for immunostaining. Antibodies used in these studies included antibodies against AC133 antigen (Miltenyi Biotech) and Sca-1 antigen (BD Pharmingen), against LPA receptors LPA1, LPA2 and LPA3 Exalpha Biologicals Inc., Antibody Solutions), βIII-tubulin (ovance, Inc.), and nestin (Chemicon, Inc.), CNPase (Sigma). To study the effect of LPA on differentiation of neurospheres, in some cases double immunostaining of LPA receptors and neuronal markers was performed. Results were analyzed using confocal microscopy. Visualization of the proteins was performed by two-color fluorescent dye labeling (i.e., red-Texas Red, green-Alexa Green) and subsequent analysis in laser confocal microscope appropriately equipped with filters of different wavelengths. The images were taken at the same gain setting for each filter within one experimental set. As an example, referring to FIG. 2A, B, the presence of AC133 antigen was detected by red fluorescence and that of Sca-1 by green fluorescence using separate wavelength visualization. AC133/Sca-1 co-localization was detected as yellow fluorescence using dual wavelength visualization (shown in right column of FIG. 2).
Neurospheres were grown using methods described above in the presence of LPA in semi-solid medium for two weeks. Aliquots of neurospheres were then removed and placed onto glass cover slips coated with laminin/poly-L-ornithine. Fresh medium without methyl cellulose and FBS (10% final) were added to initiate neurosphere adherence to the cover slip surface. The neurospheres became completely attached within 4 to 6 hours after transfer. […]
Cover slips were then fixed, stained with antibodies against AC133, Sca-1, LPA1, LPA2 and LPA3 receptors and analyzed using immunofluorescent techniques, as described above. […]

The test system of assay [2] is dissociates of postnatal C57/BL mouse forebrain (neurospheres). Put plainly: Formation and growth of neurospheres in serum-free semi-solid methylcellulose medium with growth factors. The class given is cell-based. On the procedure: Preparation of single-cell suspensions and cloning in MC. Dissociates of postnatal (5-7 days old) C57/BL mouse forebrain (subependymal zone and hippocampus) were used to generate suspended clones under anchorage and serum withdrawal in semi-solid methyl cellulose (MC). The procedures were performed as previously described Kukekov et al., Glia 21:399-407, 1997; and Kukekov et al., Exp Neurol, 156:333-344, 1999, with some additional modifications. Brain samples (approximately 10 mm^3) were minced, transferred to a beaker containing a solution of 0.25% trypsin in 0.1 mM EDTA (mixture 4:1), and slowly stirred on a magnetic plate at roomm temperature for 15 minutes. After trituration through a plastic 5 ml pipette and a fire-polished Pasteur pipette, the dissociate was washed (5-8 times in 5 ml of medium) to eliminate cellular debris.
The resultant suspension was filtered through sterile gauze, and verified to contain only single cells which were counted with a hemocytometer. Finally, cells were resuspended in 0.8% MC-based medium (NeuroCult medium, Cat. #03237, StemCell Technologies, Vancouver, BC) and plated at a clonal density (i.e., about […]) in 6-well plates coated with a non-adhesive substrate, i.e., poly 2-hydroxyethyl methacrylate (poly-HEME, Sigma) according to the manufacturer's instructions. Cells were maintained in a 37° C. incubator with 95% air, 5% CO2, and 100% humidity. Clones became visible under an inverted phase microscope approximately one week after plating.
Morphometric analysis of neurospheres. The number and diameters of neurospheres was assessed using an inverted phase microscope equipped with a size covering net. The number of neurospheres in each experimental group was normalized to the protein content. Aliquots of suspensions were removed for protein measurement using Pierce BCA protein Kit (Pierce, Rockford, Ill.) according to the manufacturer's instructions. Measurements were taken following one, two and three weeks of growth in vitro.
Using the above-described methods, dissociates of postnatal(5-7 days old) C57/BL mouse forebrain, (subependymal zone and hippocampus) were used to generate suspended clones under anchorage and serum withdrawal in semi-solid MC (MC-clones) Equal amounts of dissociates were placed in serum-free DMEM/F12, 1:1 medium supplemented with 0.8% MC and insulin (NeuroCult medium, Cat. #03237, StemCell Technologies, Vancouver, BC) in the presence of (i) 10 ng/ml EGF plus 10 ng/ml FGF2, (ii) 10 μM LPA alone and (iii) EGF+FGF2 in combination with LPA. Growth factors, i.e., EGF, FGF2 were obtained from Peprotech, Inc., and LPA was obtained from LPA-Avanti Polar Lipids, Inc. Freshly prepared aliquots of EGF and FGF2 were added every 3 days during a 21 day interval of clone (neurosphere) generation. The numbers and diameters of neurospheres were measured at the end of the third week in vitro.
Using methods described above, cells were recovered after complete dissociation of mouse forebrain to single cells and plated at a density of ˜10^4 cells/well in serum free semi-solid methylcellulose medium containing growth factors, ie., 10 μM oleoyl (C18:1) LPA, or 10 ng/ml each of EGF and FGF2. […] Neurosphere growth persisted during the second week in semi-solid medium continuously supplemented with LPA or EGF+FGF2 (FIG. 1B).

In assay [3] the target is LPA1 receptor (Homo sapiens, UniProt Q92633). As to conditions: high concentration; cited from earlier work.
Chain of LPA1 receptor (Q92633 whole entry): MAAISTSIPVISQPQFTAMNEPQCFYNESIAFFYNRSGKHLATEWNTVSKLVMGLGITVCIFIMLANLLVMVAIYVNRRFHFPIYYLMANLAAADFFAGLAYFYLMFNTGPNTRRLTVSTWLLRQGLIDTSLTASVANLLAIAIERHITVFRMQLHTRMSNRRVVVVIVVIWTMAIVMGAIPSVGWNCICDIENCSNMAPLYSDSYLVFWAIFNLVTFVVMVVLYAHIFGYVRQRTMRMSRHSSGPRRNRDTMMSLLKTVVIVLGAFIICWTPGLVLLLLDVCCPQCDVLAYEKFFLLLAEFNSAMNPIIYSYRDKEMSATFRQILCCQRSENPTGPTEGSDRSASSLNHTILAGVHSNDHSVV
Assay [4] deals with LPA-induced formation of neurospheres. As to conditions: for size of neurospheres generated by LPA: 2 weeks (FIG. 1C); for numbers of neurospheres formed: 2 weeks (FIG. 1D). On the procedure: In (C, D), neurospheres were maintained in culture for 2 weeks in the presence of LPA alone or LPA plus 1 μM or 50 μM DGPP. The number/field and the size of at least 200 neurospheres formed at 2 weeks were counted. The results are presented as mean +SEM of three independent experiments from four different neurosphere preparations. Unpaired Student's t-test was used to assess significance of the mean difference, and F test was used to compare variances.
To examine the potential involvement of LPA receptors in the LPA-induced formation of neurospheres, the effect of DGPP at low concentration (i.e., 1 μM) and high concentration (i.e., 50 μM) was compared.

For assay [5], the target named is T1, LPA3 receptor (Homo sapiens, UniProt Q9UBY5).
T1 sequence (Q9UBY5 1-353): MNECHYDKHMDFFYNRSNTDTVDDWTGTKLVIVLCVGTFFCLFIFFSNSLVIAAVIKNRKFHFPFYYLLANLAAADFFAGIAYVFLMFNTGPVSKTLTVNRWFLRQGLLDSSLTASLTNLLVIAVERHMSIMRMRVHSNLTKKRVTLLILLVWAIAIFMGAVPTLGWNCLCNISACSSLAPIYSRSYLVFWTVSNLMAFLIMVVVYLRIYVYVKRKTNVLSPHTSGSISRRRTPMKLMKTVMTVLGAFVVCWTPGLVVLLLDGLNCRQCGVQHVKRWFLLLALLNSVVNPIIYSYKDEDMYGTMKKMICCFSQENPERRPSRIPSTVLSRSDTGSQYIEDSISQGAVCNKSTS
As to conditions: cited from earlier work.

[6] abbreviates: grown two weeks in LPA, attached to cover slips.
Setting [7] is: 10 μM LPA or 10 ng/ml each EGF and FGF2.

In the case of “1 -acyl-2-hydroxy-sn-glycero-3-phosphate [LPA]”, the “Sca-1 antigen and AC133 in the residual core of neurospheres grown attached” value in assay [1] (grown attached in the presence of the growth factor) is on record as “still detected”. In addition, in assay [1] (setting [6]), the “co-localization of AC133 and Sca-1 throughout the neurospheres” value is reported as roughly 100%; the “expression of AC133 and Sca-1 antigens in neurospheres” value was “expressed both AC133 and Sca-1 antigens”. Also, in assay [2] (setting [7]), the “diameter of neurospheres, Maximum” value is 204; the “diameter of neurospheres, Median” value stood at 72.25; the “diameter of neurospheres, Minimum” value is given as 14.1; the “diameter of neurospheres, Mode” value was 55.4. Moreover, the “number of neurospheres per field (Count)” value in assay [2] (setting [7]) was determined as 220. In addition, the “diameter of neurospheres, Mean” value in assay [2] (10 μM LPA or 10 ng/ml each EGF and FGF2, serum-free methylcellulose medium) is given as 79.54 μm. In assay [2] (continuous supplementation with growth factor), the “time for which neurosphere development was sustained” value is listed as “up to 3 months”. In assay [2] (first week in culture, 10 μM oleoyl LPA or 10 ng/ml each EGF and FGF2), the formation of neurospheres result is “formed distinguishable neurospheres”.

For `CCCCCCCC(=O)OC[C@H](COP(=O)(O)OP(=O)(O)O)OC(=O)CCCCCCC` [DGPP, diacyl-glycerol pyrophosphate], in assay [3], the “LPA activation of LPA1 receptor” value was “blocks”. Besides, the “size of neurospheres generated by LPA” value in assay [4] (DGPP 1 μM plus LPA) and in assay [4] (DGPP 50 μM plus LPA) was “significantly reduced” each time. Besides, the “numbers of neurospheres formed” value is recorded as “not” in assay [4] (DGPP 1 μM plus LPA) and “decreased considerably” in assay [4] (DGPP 50 μM plus LPA, p=0.0056). Moreover, the “LPA-induced formation and growth of neurospheres” value in assay [4] (concentration not given) was “specifically inhibited”. Further, the “LPA activation of LPA3 receptor” value in assay [5] (high concentration) is “blocks”. Further, the “effect on LPA3 receptor” value in assay [5] (low concentration) is listed as “preferentially inhibit”.
